Measurements taken from US20240366625A1, “COMPOSITIONS CONTAINING AND THERAPIES USING BEMPEDOIC ACID AND TOLVAPTAN” (Esperion Therapeutics, Inc., priority 2021, published 2024).

Assays:
[1] = test system: proximal tubule (PT)-derived Pkd1−/− kidney epithelial cells; experiment: Cyst growth of PT-derived Pkd1−/− kidney epithelial cells in 3D cultures (Matrigel); assay type: cell-based, mouse; details: 10 μM forskolin+100 μM IBMX, vs vehicle (DMSO)
Method: The example describes cell growth inhibition studies in 3D cultures of kidney epithelial cells using either of ACLY inhibitors bempedoic acid or SB-204990. […] Cells were grown in Matrigel 12 days and treated with 10 μM forskolin+100 μM IBMX for 11 days, and then treated with either vehicle (DMSO; CON), 500 μM metformin, 100 μM ETC-1002 (bempedoic acid) or 30 μM SB-204990 either alone or in combination as shown for the last 3 days (FIG. 2A). […] Error bars indicate 95% confidence interval (CI) (*P<0.05, **P<0.01, ***P<0.001 for the indicated comparisons by one-way ANOVA and Tukey's multiple comparison test) (FIG. 2B).

[2] = test system: inner medullary collecting duct (IMCD)-derived Pkd1−/− kidney epithelial cells; experiment: Cyst growth of IMCD-derived Pkd1−/− kidney epithelial cells in 3D cultures (Matrigel); assay type: cell-based, mouse; details: 10 μM forskolin+100 μM IBMX
Method: ETC-1002 inhibited cyst growth of inner medullary collecting duct (IMCD)-derived Pkd1−/− kidney epithelial cells in 3D cultures. Cells were grown in Matrigel for 6 days and treated with 10 μM forskolin+100 μM IBMX±500 μM metformin and/or 100 μM of ETC-1002 (bempedoic acid) for the last 3 days alone or in combination as shown (FIG. 2C). […] Error bars indicate 95% CI (*P<0.05, **P<0.01, ***P<0.001 for the indicated comparisons by one-way ANOVA and Tukey's multiple comparison test) (FIG. 2D).

[3] = test system: early onset, rapidly developing ADPKD mouse model Pkd1fl/fl;Pax8-rtTA;Tet-O-Cre; experiment: Early onset, rapidly developing ADPKD mouse model: kidney size, kidney weight to body weight, BUN; assay type: in vivo; details: for kidney size (H&E stains of kidney sections) compared to vehicle control: oral gavage daily P12-P21, P22; for BUN: vehicle 107±14
Method: The example describes characterization of the early onset, rapidly developing ADPKD mouse model Pkd1fl/fl;Pax8-rtTA;Tet-O-Cre homozygous in the C57BL/6 background.
(§1) Doxycycline was administered intraperitoneally (50 mg/kg/day) on postnatal days 10 and 11 (P10 and P11) to induce Pkd1 deletion and rapidly progressive PKD in the Cre+ mice. Mice were treated with the various drugs and combinations or vehicle by oral gavage daily from P12-P21 and were then sacrificed at P22 of age to harvest kidneys for histology, weight measurements and blood urea nitrogen (BUN) measurements. Treatments were vehicle, tolvaptan 30 mg/kg/d, tolvaptan 100 mg/kg/d, bempedoic acid 30 mg/kg/d, tolvaptan 30 mg/kg/d+bempedoic acid 30 mg/kg/d, and tolvaptan 100 mg/kg/d+bempedoic acid 30 mg/kg/d; also included was an uninduced, untreated group without PKD. Each treatment group consisted of 3-6 mice.

[4] = test system: phosphorylated ACLY; experiment: Immunoblot of kidney lysates, early onset ADPKD mice: pACLY; assay type: in vivo, mouse; details: bempedoic acid 30 mg/kg/d alone or in combination with tolvaptan; P22
Method: as §1
(§2) At the end of the study, kidney sample lysates were prepared in buffer and separated using SDS-PAGE. Separated proteins were then electrophoretically transferred to membranes. Nonspecific binding was blocked, and membranes were probed with antibodies against phosphorylated (Thr172)-AMPK, phosphorylated P70S6K, phosphorylated ERK, phosphorylated ACLY, total KIM-1, and total neutrophil gelatinase-associated lipocalin (NGAL). Membranes were incubated with appropriate detection antibodies and relative signal intensity determined. Protein levels were normalized to total protein levels. […] These effects of bempedoic acid occurred both alone and in combination with tolvaptan therapy.

[5] = test system: phosphorylated (Thr172)-AMPK; experiment: Immunoblot of kidney lysates, early onset ADPKD mice: pAMPK; assay type: in vivo, mouse; details: bempedoic acid 30 mg/kg/d alone or in combination with tolvaptan; P22
Method: as §1, §2

[6] = test system: phosphorylated P70S6K; experiment: Immunoblot of kidney lysates, early onset ADPKD mice: pP70S6K (mTOR pathway); assay type: in vivo, mouse; details: bempedoic acid 30 mg/kg/d alone or in combination with tolvaptan; P22
Method: as §1, §2

[7] = test system: phosphorylated ERK; experiment: Immunoblot of kidney lysates, early onset ADPKD mice: pERK; assay type: in vivo, mouse; details: bempedoic acid 30 mg/kg/d alone or in combination with tolvaptan; P22
Method: as §1, §2

[8] = test system: total neutrophil gelatinase-associated lipocalin (NGAL); experiment: Immunoblot of kidney lysates, early onset ADPKD mice: NGAL; assay type: in vivo, mouse; details: P22
Method: as §1, §2

[9] = test system: total KIM-1; experiment: Immunoblot of kidney lysates, early onset ADPKD mice: KIM-1; assay type: in vivo, mouse; details: bempedoic acid 30 mg/kg/d; P22
Method: as §1, §2

[10] = test system: pACLY; experiment: Immunoblot of liver lysates, early onset ADPKD mice: pACLY; assay type: in vivo, mouse; details: bempedoic acid 30 mg/kg/d alone or in combination with tolvaptan 100 mg/kg/d; P22
Method: as §1
(§3) Liver sample lysates were prepared in buffer and separated using SDS-PAGE. Separated proteins were then electrophoretically transferred to membranes. Nonspecific binding was blocked and membranes were probed with antibodies against pACLY, pThr172AMPKα, PGC1alpha, FATP2, pACC, and cleaved Cas3. Membranes were incubated with appropriate detection antibodies and relative signal intensity determined. Target protein levels were normalized to total protein levels.

[11] = test system: FATP2; experiment: Immunoblot of liver lysates, early onset ADPKD mice: FATP2; assay type: in vivo, mouse; details: bempedoic acid 30 mg/kg/d alone or in combination with tolvaptan 100 mg/kg/d; P22
Method: as §1, §3

[12] = test system: pThr172AMPKα; experiment: Immunoblot of liver lysates, early onset ADPKD mice: pAMPK; assay type: in vivo, mouse; details: bempedoic acid 30 mg/kg/d; P22
Method: as §1, §3

[13] = test system: pACC; experiment: Immunoblot of liver lysates, early onset ADPKD mice: pACC; assay type: in vivo, mouse; details: bempedoic acid 30 mg/kg/d; P22
Method: as §1, §3

[14] = test system: late onset, slowly developing ADPKD mouse model Pkd1fl/fl;Pax8-rtTA;Tet-On-Cre; experiment: Late onset, slowly developing ADPKD mouse model: kidney weight to body weight; assay type: in vivo; details: bempedoic acid 30 mg/kg/d mixed with food from P30
Method: The example describes characterization of the late onset, slowly developing ADPKD mouse model Pkd1fl/fl;Pax8-rtTA;Tet-On-Cre when treated with bempedoic acid.
Doxycycline was administered intraperitoneally (50 mg/kg/day) on postnatal days 27-29 (P27-P29) and again on P43 and P57 to induce later Pkd1 knockout and slowly progressive PKD in the Cre+ mice. Mice were then sacrificed at […], P60, and P120 for measurements of total kidney weight to body weight ratios.

For O=C(O)C[C@@]1(O)C[C@@H](CCCCCCc2ccc(Cl)cc2Cl)OC1=O [SB-204990], the “cyst area relative to control” value ([1]; 30 μM SB-204990 for the last 3 days) was “significantly reduced cyst area”.

With CN(C)C(=N)N=C(N)N [metformin] the “cyst area relative to control” value ([1]; 500 μM metformin for the last 3 days) was “significantly reduced cyst area” and the “cyst area relative to control” value ([2]; 500 μM metformin alone for the last 3 days) was “significantly reduced cyst area”.

With Cc1ccccc1C(=O)Nc1ccc(C(=O)N2CCCC(O)c3cc(Cl)ccc32)c(C)c1 (centres unmarked) [tolvaptan, Tolvaptan] the “kidney size (H&E stains of kidney sections) compared to vehicle control” value [3] was “marked reduction in kidney size”, the BUN ([3]; tolvaptan 30 mg/kg/d oral gavage P12-P21, P22) was 68 ± 8 mg/dL and the “total kidney weight to body weight ratio” value ([3]; tolvaptan 30 mg/kg/d oral gavage P12-P21, P22, vs vehicle) was “reduced total kidney weight to body weight ratio”. The “total kidney weight to body weight ratio” value ([3]; tolvaptan 100 mg/kg/d oral gavage P12-P21, P22, vehicle 11.9±1.2%) was 7.8±1.0% and the BUN ([3]; tolvaptan 100 mg/kg/d oral gavage P12-P21, P22) was 35 ± 7 mg/dL.

For CC(C)(CCCCCC(O)CCCCCC(C)(C)C(=O)O)C(=O)O [Bempedoic acid], the “cyst area relative to control” value ([1]; 100 μM ETC-1002 for the last 3 days) was “significantly reduced cyst area”, the “cyst area relative to control” value ([2]; 100 μM ETC-1002 alone for the last 3 days) was “significantly reduced cyst area” and the “total kidney weight to body weight ratio” value ([3]; bempedoic acid 30 mg/kg/d oral gavage P12-P21, P22, vehicle 11.9±1.2%) was 6.9±0.4%. The BUN ([3]; bempedoic acid 30 mg/kg/d oral gavage P12-P21, P22) was 59 ± 13 mg/dL, the “kidney size (H&E stains of kidney sections) compared to vehicle control” value [3] was “marked reduction in kidney size” and the “ACLY activity (pACLY relative to total protein), kidney lysate” value [4] was “reduced ACLY”. The “AMPK activity (pThr172 relative to total protein), kidney lysate” value [5] was “stimulated AMPK”, the “mTOR signaling pathway (pP70S6K relative to total protein), kidney lysate” value [6] was “inhibited” and the “ERK signaling pathway (pERK relative to total protein), kidney lysate” value [7] was “inhibited”. The “NGAL signaling pathway (NGAL relative to total protein), kidney lysate” value ([8]; bempedoic acid 30 mg/kg/d alone or in combination with tolvaptan) was “inhibited”, the “reduction of NGAL expression compared with reduction of KIM-1 expression, kidney lysate” value ([8]; bempedoic acid 30 mg/kg/d) was “to a lesser extent” and the “reduction of KIM-1 expression (marker of kidney injury), kidney lysate” value [9] was > 70%. For the same molecule, the “pACLY (activation marker) relative to total protein, liver lysate” value [10] was “inhibited pACLY”, the “FATP2 expression relative to total protein, liver lysate” value [11] was “increased FATP2 expression” and the “AMPK activity (pThr172 relative to total protein), liver lysate” value [12] was “increased AMPK activity”. The “phosphorylation of AMPK target ACC in liver tissue” value [13] was “promoted phosphorylation”, the “total kidney weight to body weight ratio” value ([14]; P60, male mice) was “significantly reduced total kidney weight to body weight ratio” and the “total kidney weight to body weight ratio” value ([14]; P120, male and female mice) was “a trend that was also observed”.
